Where two headings read alike, the source gives them in different places.

One experiment concerns Plasmodium falciparum. Nature of the experiment: Antimalarial activity: in vitro Plasmodium falciparum culture, [3H]-hypoxanthine incorporation. The experiment is classed as cell-based. To be noted: Example 11, asynchronous blood culture, 48 h + 24 h with [3H]-hypoxanthine, dilution series 100 to 0.14 μmol l−1, IC50 determined by extrapolating, read-out: IC 50 values, Plasmodium falciparum. On the procedure:
The antimalarial activity of compounds 1 to 5 was determined using in vitro cultures of the causative organism of malaria, Plasmodium falciparum. 200 μl of an asynchronous Plasmodium falciparum culture with a 0.4% blood parasite content and a haematocrit of 2% were loaded into each of the wells of a 96 well microtitre plate. A serial dilution series of the compounds was then prepared in steps of three between concentrations of 100 and 0.14 μmol 1^−1. The plates are incubated at 37° C., 3% CO2 and 5% O2 over a period of 48 hours. 30 μl of medium supplemented with 27 ηCi ml^−1 of [^3H]-hypoxanthine were then added to each well. After 24 hours' incubation, the parasites were harvested by filtration through glass fibre filters and the incorporated radioactivity was measured. Inhibition of parasite growth was measured as the percentage inhibition of tritium incorporation relative to a comparison without the substance. The median inhibitory concentration (IC50) of the substance was determined by extrapolating the values.

The next experiment deals with E. coli K12. Nature of the experiment: Antibacterial action: growth inhibition of E. coli K12 in LB medium (turbidity). Particulars: Escherichia coli, Example 10, overnight at 37° C., dilution series 500, 100, 50, 10 and 0 μmol l−1, growth assessed by turbidity, read-out: IC 50 values, E. coli. The experiment is classed as cell-based. The method, then: Antibacterial action of the above-stated compounds 1 to 5
A dilution series comprising the concentrations 500, 100, 50, 10 and 0 μmol 1^−1 of the individual compounds 1 to 5 in LB medium is introduced into 5 culture microtubes in a volume of 0.5 ml. Each of the microtubes was inoculated with 10 μl of an overnight culture of E. coli K12 and shaken overnight at 37° C. Bacterial growth was assessed on the basis of the turbidity of the medium.

As for `CC(=O)N(O)C(CCC1CCCCC1)CCP(=O)(O)O` (stereo not shown) [Compound 2, 3-N-Acetyl-3-N-(hydroxylamino)-5-cyclohexyl-pentylphosphonic acid], in the experiment on Plasmodium falciparum, the IC50 is 157 nM. The same measure, in the same setting: next, “3-acetyl-3-(N-hydroxylamino)-3-methyl-[2-(3-pyridyl)ethyl]propylphosphonic acid [Compound 5]”: 183 nM; `CC(=O)N(O)C(CCc1ccccc1)CCP(=O)(O)O` (stereo not shown) [Compound 1, 3-N-Acetyl-3-N-(hydroxylamino)-5-phenylpentylphosphonic acid]: 215 nM.

Regarding `CC(=O)C(C)(NO)C(CCc1ccccn1)CP(=O)(O)O` (stereo not shown) [Compound 4, 3-acetyl-3-(N-hydroxylamino)-3-methyl-2-[2-(2-pyridyl)ethyl]propylphosphonic acid], the IC50 was 375 nM in the experiment on Plasmodium falciparum (Plasmodium falciparum) and 736000 nM in the experiment on E. coli K12.

Turning to `CC(=O)C(C)(NO)C(CCc1ccccc1)CP(=O)(O)O` (stereo not shown) [Compound 3, 3-acetyl-3-(N-hydroxylamino)-3-methyl-2-(2-phenylethyl)propylphosphonic acid], the values for the IC50 in the experiment with Plasmodium falciparum (Plasmodium falciparum) and with E. coli K12 were 405 nM and 762000 nM, respectively.

These data come from patent US6534489B1, “Organophosphorus compounds and the use thereof” (Jomaa Pharmaka GmbH, priority 1998, dated 2003).
